Reference: patent publication US20190216093A1, “COMPOSITIONS AND RELATED METHODS FOR AGRICULTURE” (priority 2017, published 2019)
“Also recorded” adds a separate entry of the source.

Tests used:
[1] = system: ApGLNT1 glutamine transporter; conditions: Price et al., 2014 PNAS; cited from earlier work
[2] = system: Acyrthosiphon pisum aphids; experiment: Aphid survival monitoring; assay type: in vivo
[3] = system: endosymbiotic Buchnera; experiment: Buchnera/aphid DNA copy numbers by qPCR; assay type: in vivo, Buchnera aphidicola
Method: (§1) After 7 days of treatment, DNA was extracted from multiple aphids from each treatment group. Briefly, the aphid body surface was sterilized by dipping the aphid into a 6% bleach solution for approximately 5 seconds. Aphids were then rinsed in sterile water and DNA was extracted from each individual aphid using a DNA extraction kit (Qiagen, DNeasy kit) according to manufacturer's instructions. DNA concentration was measured using a nanodrop nucleic acid quantification, and Buchnera and aphid DNA copy numbers were measured by qPCR. […]
(§2) After 8 days of treatment, DNA was extracted from multiple aphids from each treatment group. Briefly, the aphid body surface was sterilized by dipping the aphid into a 6% bleach solution for approximately 5 seconds. Aphids were then rinsed in sterile water and DNA was extracted from each individual aphid using a DNA extraction kit (Qiagen, DNeasy kit) according to manufacturer's instructions. DNA concentration was measured using a nanodrop nucleic acid quantification, and Buchnera and aphid DNA copy numbers were measured by qPCR.
as §2, with “from the remaining” for “from multiple”, “aphids in” for “aphids from”
(§3) After 7 of treatment, DNA was extracted from the remaining aphids in each treatment group. Briefly, the aphid body surface was sterilized by dipping the aphid into a 6% bleach solution for approximately 5 seconds. Aphids were then rinsed in sterile water and DNA was extracted from each individual aphid using a DNA extraction kit (Qiagen, DNeasy kit) according to manufacturer's instructions. DNA concentration was measured using a nanodrop nucleic acid quantification, and Buchnera and aphid DNA copy numbers were measured by qPCR.
as §3, with “Briefly,” for “After 7 of treatment, DNA was extracted from the remaining aphids in each treatment group. Briefly,”
as §1, with “3” for “7”, “the remaining living” for “multiple”

[4] = system: gram-negative and gram-positive organisms; conditions: cited from earlier work
[5] = system: Acyrthosiphon pisum aphids; experiment: Aphid developmental stage monitoring; assay type: in vivo; conditions: for aphids that did not mature further than the 4th instar stage: eNASCO, 11 days post-treatment
[6] = system: Acyrthosiphon pisum aphids; experiment: Aphid body area (size) measurement from images; assay type: in vivo; conditions: eNASCO; 10 or 100 uM pantothenol in artificial diet; by 3 days post-treatment
Method: For adult aphids, new nymphs were counted daily and then discarded. At the end of the experiments, fecundity was determined as the mean number of offspring produced daily once the aphid reached adulthood. Pictures of aphids were taken throughout the experiment to evaluate size differences between treatment groups.
Each treatment group received approximately the same number of individuals from each of the collection plant. For each treatment, 20 aphids were placed onto each leaf. Aphids were monitored daily for survival and dead aphids were removed when they were discovered. In addition, the developmental stage (1st, 2nd, 3rd, 4th, 5th instar, and 5R, representing a reproducing 5th instar) was determined daily throughout the experiment. […]
(§4) For adult aphids, new nymphs were counted daily and then discarded. At the end of the experiments, fecundity was measured in two ways: 1) the mean day at which the first offspring for the treatment group was determined and 2) the mean number of offspring produced daily once the aphid reached adulthood. […]
Aphids LSR-1 (which harbor only Buchnera), Acyrthosiphon pisum were grown on fava bean plants (Vroma vicia faba from Johnny's Selected Seeds) in a climate-controlled incubator (16 h light/8 h dark photoperiod; 60±5% RH; 25±2° C.). […] Aphids were monitored daily for survival and dead aphids were removed from the deep petri dish when they were discovered. […]

[7] = system: Acyrthosiphon pisum aphids; experiment: Aphid fecundity (offspring production); assay type: in vivo; conditions: for aphid reproduction: 10 or 100 uM pantothenol
Method: In addition, the developmental stage (1st, 2nd, 3rd, 4th, 5th, and 5R (5th that has reproduced) instar) was determined daily throughout the experiment. Once an aphid reached the 4th instar stage, they were given their own artificial feeding system in a deep petri dish so that fecundity could be monitored once they reached adulthood.
as §4, with “adulthood. Pictures of aphids were taken throughout the experiment to evaluate size differences between treatment groups.” for “adulthood.”

[8] = system: Plasmodium falciparium; conditions: previous study (Saliba et al., 2005); cited from earlier work
[9] = system: gram-negative and gram-positive bacteria as well as fungi; conditions: cited from earlier work
[10] = LSR-1, 100 μg/ml rifampicin in artificial diet without essential amino acids, through plants

N=C(N)NCCC[C@H](N)C(=O)O [arginine]
glutamine uptake [1]: inhibits glutamine uptake by the glutamine transporter

Cc1cc2c(C(C)C)c(O)c(O)c(C=O)c2c(O)c1-c1c(C)cc2c(C(C)C)c(O)c(O)c(C=O)c2c1O [gossypol, gossypol acetic acid]
all aphids succumbed to treatment by ([2]; 0.5% gossypol): ≤ 4 days | aphids began dying after ([2]; 0.5% gossypol): 2 days | Buchnera/aphid DNA copies, fold less than control ([3]; 0.25 and 0.5% of gossypol, 5 or 13 days): ~4 -fold less

O=C/C=C/c1ccccc1 [trans-cinnemaldehyde]
antimicrobial activity [4]: antimicrobial activity against both gram-negative and gram-positive organisms | aphid survival rate ([2]; 0.05%, 0.5%, and 5% trans-cinnemaldehyde, 3 days): dose-dependent decrease in survival; also recorded: significantly lower | aphid developmental stage ([5]; 5% trans-cinnemaldehyde): remained at the 1st instar stage throughout the course of the experiment | aphid developmental stage ([5]; LSR-1 1st and 2nd instar, trans-cinnemaldehyde 0.05%, 0.5%, 5% in water, leaf perfusion and through plants, 3 days): none of the aphids matured past the second instar stage | aphid developmental stage ([5]; LSR-1 1st and 2nd instar, trans-cinnemaldehyde 0.05%, 0.5%, 5% in water, leaf perfusion and through plants, 3 days, listed as Trans-cinnemaldehyde): resulted in delayed aphid development | Buchnera/aphid DNA copies, fold less than control ([3]; 0.5 and 5% of trans-cinnemaldehyde, 3 days): ~870 -fold less | Buchnera/aphid DNA copies ([3]; lowest concentration of trans-cinnemaldehyde (0.5%), 3 days): high ratios of Buchnera/aphid DNA copies | Buchnera/aphid DNA (symbiont titer) ([3]; trans-cinnemaldehyde 0.05%, 0.5%, 5%, 3 days post-treatment): reduced endosymbiotic Buchnera

CC(=O)CCC(=O)O [levulinic acid]
aphid mortality ([2]; eNASCO, 0.03% levulinic acid, difference did not reach statistical significance): higher mortality compared to control treated aphids | aphid survival ([2]; eNASCO, 0.03 or 0.3% levulinic acid): dose-dependent decrease in survival; also recorded: decrease in insect survival | aphid survival ([2]; eNASCO, 0.3% levulinic acid, 11-day experiment): survival was significantly less | aphid developmental stage ([5]; eNASCO 1st and 2nd instar, 0.03 or 0.3% levulinic acid, leaf injection and through plant): Development was delayed; also recorded: resulted in delayed aphid development | aphids that did not mature further than the 4th instar stage ([5]; 0.03% levulinic acid): ~23% | aphids that did not mature further than the 4th instar stage ([5]; 0.3% levulinic acid): ~63% | Buchnera/aphid DNA copies, fold less than control ([3]; 0.03 or 0.3% levulinic acid in water, 7 days): ~6 -fold less | Buchnera/aphid ratio ([3]; 0.03 or 0.3% levulinic acid, seven and eleven days post-treatment): reduced endosymbiotic Buchnera

CC(C)(CO)[C@@H](O)C(=O)NCCCO [pantothenol]
aphid area [6]: drastic effect of pantothenol treatment; also recorded: smaller in area than untreated controls | mean number of offspring per day produced by reproducing aphids ([7]; 10 uM pantothenol (control approximately 7)): approximately 4 offspring/day | mean number of offspring per day produced by reproducing aphids ([7]; 100 uM pantothenol (control approximately 7)): ~5 offspring/day | aphid reproduction [7]: loss of aphid reproduction | aphid reproduction ([7]; listed as Pantothenol): resulted in loss of reproduction | mean day aphids began reproducing ([7]; all treatment groups (10 and 100 uM pantothenol)): 7 days | aphid survival ([2]; eNASCO, 10 or 100 uM pantothenol in artificial diet, through plants): increased aphid mortality; also recorded: negatively affected aphid fitness | aphid survival rate ([2]; eNASCO, leaf coating, 10 uM pantothenol): lower survival rates than aphids placed on coated leaves with the control solution | aphid survival rate ([2]; eNASCO, leaf coating, 10 uM pantothenol, listed as Pantothenol): resulted in aphid death | aphid developmental stage ([5]; eNASCO 1st and 2nd instar, 10 or 100 uM pantothenol in artificial diet without essential amino acids, through plants): Development was delayed | aphid developmental stage ([5]; eNASCO 1st and 2nd instar, 10 or 100 uM pantothenol in artificial diet without essential amino acids, through plants, listed as Pantothenol): delayed aphid development | aphid developmental stage ([5]; eNASCO 1st instar, leaf coating, 10 uM pantothenol in 0.025% Silwet L-77): did not affect aphid development | Buchnera/aphid DNA copies ([3]; 10 or 100 uM pantothenol, 8 days): does not affect Buchnera/aphid DNA copy number directly | Buchnera/aphid DNA copies ([3]; 10 or 100 uM pantothenol, 8 days, listed as Pantothenol): did not affect endosymbiotic Buchnera | growth of Plasmodium falciparium [8]: inhibits the growth of Plasmodium falciparium

CO[C@H]1/C=C/O[C@@]2(C)Oc3c(C)c(O)c4c(O)c(c(/C=N/N5CCN(C)CC5)c(O)c4c3C2=O)NC(=O)/C(C)=C\C=C\[C@H](C)[C@H](O)[C@@H](C)[C@@H](O)[C@@H](C)[C@H](OC(C)=O)[C@@H]1C [rifampicin, reference compound]
all aphids succumbed to treatment by [2, 10]: ≤ 9 days | aphids began dying after [2, 10]: 1 days | Buchnera/aphid DNA copies, fold less than control ([3]; LSR-1, 100 μg/ml rifampicin through plants, 7 days of treatment): ~4 -fold less

B1: NCR335: cationic NCR peptide (peptide)
chain: MQIGKNMVETPKLDYVIIFFFLYFFFRQMIILRLNTTFRPLNFKMLRFWGQNRNIMKHRGQKVHFSLILSDCKTNKDCPKLRRANVRCRKSYCVPI
antimicrobial activities [9]: effective against gram-negative and gram-positive bacteria as well as fungi
